Reference: patent publication US20080085884A1, “Melanin Concentrating Hormone Receptor-1 Antagonist Pyridinones” (Pfizer Inc, priority 2006, published 2008)
pKi: −log10 of the molar value. Structures can show the parent of a compound that is named as a salt.

Molecular target: T1, human MCHR1 (Homo sapiens, UniProt Q99705)
T1 construct: host or cells: CHO
Assay: Cyclic AMP assay (MCHR-1 functional antagonism)
Format: cell-based
Details: CHO cells stably expressing human MCHR1; cAMP accumulation with 25 uM forskolin and 0.2 nM MCH, 90 min; Ki from IC50 by Cheng-Prusoff; read-out: MCHR-1 functional Ki

T1 sequence (Q99705 whole entry): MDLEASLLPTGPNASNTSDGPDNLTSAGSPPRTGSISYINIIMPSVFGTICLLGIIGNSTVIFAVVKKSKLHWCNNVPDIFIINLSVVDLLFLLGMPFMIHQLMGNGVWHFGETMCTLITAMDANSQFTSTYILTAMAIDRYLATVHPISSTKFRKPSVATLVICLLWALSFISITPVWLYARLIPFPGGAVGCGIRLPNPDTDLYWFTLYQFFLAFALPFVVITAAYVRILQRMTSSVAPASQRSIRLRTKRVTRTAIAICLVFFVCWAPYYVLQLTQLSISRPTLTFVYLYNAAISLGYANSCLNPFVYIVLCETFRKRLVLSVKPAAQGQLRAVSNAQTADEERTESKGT

**Q.** With CN[C@H]1CCN(c2ccc(-n3ccc(OCc4ccc(F)c(F)c4)cc3=O)cn2)C1 [Example 150] as the molecule, how does the pKi read?
**A.** 8.46

**Q.** How did the pKi turn out when O=c1cc(OCc2ccccc2)ccn1-c1ccc(N2CC[C@@H](O)C2)nn1 [Example 157] was run?
**A.** 5.50

**Q.** CN[C@H]1CCN(c2ccc(-n3ccc(OCc4ccccc4)cc3=O)cn2)C1 [Example 13, 4-(Benzyloxy)-6′-[(3S)-3-(methylamino)pyrrolidin-1-yl]-2H-1,3′-bipyridin-2-one dihydrochloride] was tested. Which pKi did it give?
**A.** 8.31

**Q.** CC(=O)N[C@H]1CCN(c2ccc(-n3ccc(OCc4ccccc4)cc3=O)cn2)C1 [Example 162] was tested. Which pKi did it give?
**A.** 7.51

**Q.** How did the pKi turn out when O=c1cc(OCc2ccc(F)cc2)ccn1-c1ccc(N2CCC[C@H](O)C2)nc1 [Example 88] was run?
**A.** 5.94

**Q.** With CCN1C[C@@H]2CN(c3ccc(-n4ccc(OCc5ccccc5)cc4=O)cn3)C[C@@H]2C1 [Example 26, 4-(Benzyloxy)-6′-[(3aR,6aS)-5-ethylhexahydropyrrolo[3,4-c]pyrrol-2(1H)-yl]-2H-1,3′-bipyridin-2-one] as the molecule, how does the pKi read?
**A.** 8.18

**Q.** With CCC(=O)N[C@@H]1CCN(c2ccc(-n3ccc(OCc4ccccc4)cc3=O)cn2)C1 [Example 196] as the molecule, how does the pKi read?
**A.** 6.22

**Q.** With O=c1cc(OCc2ccccc2)ccn1-c1ccc(N2CCC2)nc1 [Example 59] as the molecule, how does the pKi read?
**A.** 7.17

**Q.** How did the pKi turn out when O=c1cc(OCc2ccccc2)ccn1-c1ccc(N2C[C@@H]3CN(C4CCC4)C[C@@H]3C2)nc1 [Example 210] was run?
**A.** 8.34

**Q.** NC1CN(c2ccc(-n3ccc(OCc4ccccc4)cc3=O)cn2)C1 [Example 232] was tested. Which pKi did it give?
**A.** 6.62

**Q.** With CC(C)C1(O)CCN(c2ccc(-n3ccc(OCc4ccccc4)cc3=O)cn2)C1 (stereo not drawn) [Example 45] as the molecule, how does the pKi read?
**A.** 6.57

**Q.** With O=c1cc(OCc2ccc(Cl)cc2)ccn1-c1ccc(N2C[C@@H](O)[C@@H](O)C2)nc1 [Example 101] as the molecule, how does the pKi read?
**A.** 7.59

**Q.** With O=c1cc(OCc2ccc(F)c(F)c2)ccn1-c1ccc(N2CC[C@@H](O)C2)nc1 [Example 148] as the molecule, how does the pKi read?
**A.** 6.90

**Q.** How did the pKi turn out when O=c1cc(OCc2ccc(F)c(Cl)c2)ccn1-c1ccc(N2CC[C@@H](O)C2)nc1 [Example 206] was run?
**A.** 6.60

**Q.** O=c1cc(OCc2ccccc2)ccn1-c1ccc(N2CCCNCC2)nc1 [Example 216] was tested. Which pKi did it give?
**A.** 7.11

**Q.** N[C@H]1CCN(c2ccc(-n3ccc(OCc4ccccc4)cc3=O)cn2)C1 [Example 55, 6′-[(3S)-3-aminopyrrolidin-1-yl]-4-(benzyloxy)-2H-1,3′-bipyridin-2-one] was tested. Which pKi did it give?
**A.** 8.44

**Q.** With O=c1cc(OCc2ccc(Cl)cc2)ccn1-c1ccc(N2CCC[C@@H](O)C2)nc1 [Example 106] as the molecule, how does the pKi read?
**A.** 7.18

**Q.** With O=c1cc(OCc2ccc(F)cc2)ccn1-c1ccc(N2CCCC2)nc1 [Example 116] as the molecule, how does the pKi read?
**A.** 7.57
